Target: T1, Solute carrier family 12 member 5 (Homo sapiens, UniProt Q9H2X9)
T1 sequence (Q9H2X9 whole entry): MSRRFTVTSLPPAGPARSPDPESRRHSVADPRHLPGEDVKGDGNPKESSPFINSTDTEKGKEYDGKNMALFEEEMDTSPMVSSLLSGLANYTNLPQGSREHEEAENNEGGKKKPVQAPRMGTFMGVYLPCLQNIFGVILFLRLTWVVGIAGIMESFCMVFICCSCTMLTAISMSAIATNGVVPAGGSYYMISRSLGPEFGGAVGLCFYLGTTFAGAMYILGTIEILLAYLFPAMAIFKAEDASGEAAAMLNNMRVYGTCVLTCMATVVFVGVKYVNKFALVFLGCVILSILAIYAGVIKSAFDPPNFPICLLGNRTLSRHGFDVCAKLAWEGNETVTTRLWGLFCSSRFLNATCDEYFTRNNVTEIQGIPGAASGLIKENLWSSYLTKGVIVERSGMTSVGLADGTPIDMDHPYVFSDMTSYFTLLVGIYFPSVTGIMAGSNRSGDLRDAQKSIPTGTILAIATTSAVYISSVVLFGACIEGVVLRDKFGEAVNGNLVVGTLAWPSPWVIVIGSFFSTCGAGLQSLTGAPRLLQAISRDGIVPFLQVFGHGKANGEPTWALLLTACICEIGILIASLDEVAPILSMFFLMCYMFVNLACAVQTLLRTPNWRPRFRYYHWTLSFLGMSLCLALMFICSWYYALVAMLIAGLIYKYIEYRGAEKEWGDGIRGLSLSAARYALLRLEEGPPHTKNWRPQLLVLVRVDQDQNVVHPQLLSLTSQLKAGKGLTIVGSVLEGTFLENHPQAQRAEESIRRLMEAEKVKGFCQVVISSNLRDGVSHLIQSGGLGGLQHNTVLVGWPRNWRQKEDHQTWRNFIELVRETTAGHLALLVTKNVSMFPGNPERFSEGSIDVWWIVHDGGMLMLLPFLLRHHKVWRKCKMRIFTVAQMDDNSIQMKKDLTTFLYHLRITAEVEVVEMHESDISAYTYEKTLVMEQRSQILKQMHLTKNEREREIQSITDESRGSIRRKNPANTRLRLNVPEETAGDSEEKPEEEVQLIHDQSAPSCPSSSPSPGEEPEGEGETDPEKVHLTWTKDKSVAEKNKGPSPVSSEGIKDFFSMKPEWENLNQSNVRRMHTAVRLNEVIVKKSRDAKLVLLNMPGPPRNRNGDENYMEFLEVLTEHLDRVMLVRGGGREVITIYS
Test: concentration-response of KCC2 transport modulators – cell-based, HEK293 KCC2, FluoZin-2 fluorescence, dose response (AID 1736)

Row | Compound | EC50 [µM] | EC50 (inactive by the depositor's call) [µM]
1 | Cc1ccccc1-c1nc(CS(=O)(=O)CC(=O)NCc2ccccc2)c(C)o1 [2-[[5-methyl-2-(2-methylphenyl)-1,3-oxazol-4-yl]methylsulfonyl]-N-(phenylmethyl)ethanamide] | 11.8 | –
2 | O=C(CSc1nnnn1-c1ccc(Cl)cc1)N1CCc2ccccc2C1 [2-[1-(4-chlorophenyl)tetrazol-5-yl]sulfanyl-1-(3,4-dihydro-1H-isoquinolin-2-yl)ethanone] | 4.09 | –
3 | CCCn1c(NC(=S)Nc2ccccc2)nc2ccccc21 [1-phenyl-3-(1-propyl-2-benzimidazolyl)thiourea] | – | 60400
4 | Cc1n[nH]c(O)c1C(c1ccc(-c2ccc(F)cc2)o1)c1c(C)n[nH]c1O [4-[[5-(4-fluorophenyl)furan-2-yl]-(3-methyl-5-oxo-1,2-dihydropyrazol-4-yl)methyl]-5-methyl-1,2-dihydropyrazol-3-one] | 8.39 | –

Second part, the compound after the results:

Row | EC50 [µM] | EC50 (inactive by the depositor's call) [µM] | Compound
5 | 5.12 | – | O=C(CSc1ccc(-c2cccs2)nn1)Nc1ccccc1F [MLS000621184]
6 | 3.24 | – | N#Cc1ccccc1NC(=O)CSc1nccn1CCc1ccccc1 [MLS000051858]
7 | 3.59 | – | O=C(Cc1csc(-c2ccccc2)n1)NCc1ccc(F)cc1 [MLS000336311]
8 | 11.7 | – | O=C(CN(c1ccc2c(c1)OCCO2)S(=O)(=O)c1ccccc1)N1CCN(Cc2ccccc2)CC1 [MLS000693333]

Source: BindingDB's records for doi:10.7270/Q2TX3CSC (Vanderbilt Screening Center for GPCRs, Ion Channels and …, 2009)
